Data: paper PMC6057649, “Development of NanoLuc-PEST expressing Leishmania mexicana as a new drug discovery tool for axenic- and intramacrophage-based assays” (PLoS Neglected Tropical Diseases, 2018)

System: NanoLuc-PEST expressing L. mexicana axenic amastigotes
Assay: microbe, parasite or virus in culture
Type: cell-based
Settings: for Relative Bioluminescence (%) / viability at 2 µM / viability at 10 µM: 72 hours, relative to DMSO only control, n = 4; for viability at 2 µM / viability at 10 µM: Leishmania mexicana, read-out: Relative Bioluminescence (%); for EC50: hit compounds from the axenic amastigote screen, S3 Table, read-out: EC50, Axenic Amastigotes

Row | SMILES | Relative Bioluminescence (%) (2 µM compound) | Relative Bioluminescence (%) (10 µM compound) | viability at 2 µM (2 µM compound) [%] | viability at 10 µM (10 µM compound) [%] | EC50 [nM]
1 | Cc1cc2nc(NC(=O)C(C)(C)C)nc(Cl)c2n1Cc1ccc(Cl)cc1 [MMV688704] | 83.23 | 53.57 | – | – | –
2 | CON=C(C(=O)OC)c1ccccc1CON=C(C)c1cccc(C(F)(F)F)c1 [MMV688754, Trifloxystrobin] | – | – | 67.6 | -1.92 | –
3 | O=[N+]([O-])c1cn2c(n1)OC[C@@H](OCc1ccc(OC(F)(F)F)cc1)C2 [MMV688755] | 26.38 | 0.45 | – | – | –
4 | CC(=O)NC[C@H]1CN(c2ccc(N3CCSCC3)c(F)c2)C(=O)O1 [MMV688756, Sutezolid, reference compound] | – | – | 88.9 | 64.5 | –
5 | CS(=O)(=O)c1ccc(C(=O)N(CC2CCCO2)c2nc3ccccc3s2)cc1[N+](=O)[O-] (stereo not shown) [MMV688761] | 39.52 | -1.44 | – | – | –
6 | c1ccc(-c2[nH]c3ccccc3c2C(c2ccccn2)N2CCCC2)cc1 (stereo not shown) [MMV688762] | 73.33 | 84.34 | – | – | –
7 | CNc1nnc(Sc2cnn(-c3ccccc3)c(=O)c2Cl)s1 [MMV688763] | -1.63 | -0.71 | – | – | 380
8 | COc1ccc(-c2onc(C(F)(F)F)c2-c2ccc(Cl)cc2)c(O)c1 [MMV688766] | 82.40 | -2.36 | – | – | –
9 | Cc1[nH]c2ccccc2c1C(c1cccs1)N1CCN(C)CC1 (stereo not shown) [MMV688768] | 75.96 | -1.33 | – | – | –
10 | Cc1ccccc1C(=O)N1NC(=Nc2ccccc2)SC1(C)C [MMV688771] | 70.08 | 37.89 | – | – | –
11 | O=C(Cn1ccnc1[N+](=O)[O-])NCc1ccccc1 [MMV688773, Benznidazole, reference compound] | – | – | 110 | 132 | –
12 | CC[C@@H]([C@H](C)O)n1ncn(-c2ccc(N3CCN(c4ccc(OC[C@@H]5CO[C@@](Cn6cncn6)(c6ccc(F)cc6F)C5)cc4)CC3)cc2)c1=O [MMV688774, Posaconazole, reference compound] | – | – | 31.3 | -1.25 | –
13 | CO[C@H]1/C=C/O[C@@]2(C)Oc3c(C)c(O)c4c(O)c(c(/C=N/N5CCN(C)CC5)c(O)c4c3C2=O)NC(=O)/C(C)=C\C=C\[C@H](C)[C@H](O)[C@@H](C)[C@@H](O)[C@@H](C)[C@H](OC(C)=O)[C@@H]1C [MMV688775, Rifampicin, reference compound] | – | – | 47.6 | 2.74 | –
14 | Cc1cccnc1NC(=O)c1cccc(OCc2c(C)noc2C)c1 [MMV688793] | 74.59 | 52.13 | – | – | –
15 | O=C(NCCc1ccn(-c2ccccc2)n1)C1CCCCC1 [MMV688795] | 79.12 | 86.70 | – | – | –
16 | O=C(NCc1nnc2n1CCCCC2)c1ccc(-c2ccc(F)cc2)o1 [MMV688796] | 88.65 | 91.91 | – | – | –
17 | CC1CCCCN1C(=O)NCCc1coc(-c2ccc(F)cc2)n1 (stereo not shown) [MMV688797] | 76.99 | 71.92 | – | – | –
18 | CS(=O)(=O)c1ccccc1C(=O)N(Cc1ccccc1)c1ccccc1 [MMV688798] | 64.37 | 62.11 | – | – | –
19 | COc1ccc2nccc(NC(=O)C3CCN(CCc4ccc(Cl)cc4)CC3)c2n1 [MMV688844] | 77.54 | 91.56 | – | – | –
20 | O=C(N[C@H](Cc1ccccc1)C(=O)Nc1ccccc1N1CCOCC1)c1cccs1 [MMV688845] | 64.60 | 67.13 | – | – | –

Row | SMILES | Relative Bioluminescence (%) (2 µM compound) | Relative Bioluminescence (%) (10 µM compound) | viability at 2 µM (2 µM compound) [%] | viability at 10 µM (10 µM compound) [%] | EC50 [nM]
21 | Cc1ccccc1CN1CCC(O)(c2ccc(Cl)c(C(F)(F)F)c2)CC1 [MMV688846] | 63.77 | 60.58 | – | – | –
22 | CC(C)(C)n1nc(Cc2ccc(F)c(Cl)c2)c2c(N)ncnc21 [MMV688852] | 73.28 | 34.77 | – | – | –
23 | CCOc1ccc2cc(-c3nn(C(C)(C)C)c(N)c3C(N)=O)cnc2c1 [MMV688853] | 34.19 | 42.96 | – | – | –
24 | CCOc1ccc2cc(-c3nn(CC4CCN(C)CC4)c4ncnc(N)c34)ccc2c1 [MMV688854] | 92.07 | 66.13 | – | – | –
25 | CN1CCN(c2cc(-c3ccc(F)cc3)nc(-c3ccncc3)n2)CC1 [MMV688888] | 78.28 | 89.99 | – | – | –
26 | Clc1ccc(CCNc2cc(-c3ccccc3)nc3ncnn23)cc1 [MMV688889] | 73.23 | 59.03 | – | – | –
27 | COc1cc(Br)cc2cc(C(=O)Nc3cccc(C(F)(F)F)c3)c(=O)oc12 [MMV688891] | 75.74 | 64.36 | – | – | –
28 | OC[C@H]1O[C@@H](n2c3ccc(Cl)cc3c3c(-c4cc5ccccc5o4)ncnc32)C(O)[C@H]1O (stereo partly shown) [MMV688921] | 84.76 | 105.56 | – | – | –
29 | CCc1nn(C)c(C(=O)NCc2ccc(Oc3ccc(C)cc3)cc2)c1Cl [MMV688934, Tolfenpyrad] | – | – | 68.5 | 68.1 | –
30 | O=C(c1ccco1)N(CCCn1ccnc1)c1nc2c(Cl)cccc2s1 [MMV688936] | 80.40 | 77.21 | – | – | –
31 | CCOc1ccc(-c2nc(CNCCc3ccc(F)cc3)cs2)cc1 [MMV688938] | 63.80 | 76.80 | – | – | –
32 | Cc1ccc2nc(C)c(-c3ccn(Cc4ccccc4)n3)n2c1 [MMV688939] | 75.51 | 51.85 | – | – | –
33 | COc1cc(CN2CCC3(C=Cc4ccccc43)CC2)cc2c1OCO2 [MMV688941] | 78.23 | 74.74 | – | – | –
34 | CC(C)(C)C(O)C(Oc1ccc(-c2ccccc2)cc1)n1cncn1 (stereo not shown) [MMV688942, Bitertanol] | – | – | 21 | 15.4 | –
35 | CC1COC(Cn2cncn2)(c2ccc(Oc3ccc(Cl)cc3)cc2Cl)O1 (stereo not shown) [MMV688943, Difenoconazol] | 26.19 | 8.96 | – | – | –
36 | Cc1cc(NC(=O)c2ccc(Oc3ccc(Cl)cc3O)o2)no1 [MMV688955] | 95.96 | 96.76 | – | – | –
37 | CC(=O)OCC1OC([S-])C(OC(C)=O)C(OC(C)=O)C1OC(C)=O.CCP(CC)CC.[Au+] (stereo not shown) [MMV688978, Auranofin, reference compound] | -2.60 | -2.20 | – | – | 170
38 | CCc1cc(=O)n(C)c(SC(C)C(=O)Nc2ccc(F)cc2)n1 (stereo not shown) [MMV688980] | 76.34 | 48.08 | – | – | –
39 | CC(=O)Oc1ccccc1C(=O)Nc1ncc([N+](=O)[O-])s1 [MMV688991, Nitazoxanide, reference compound] | – | – | 71.1 | 0.38 | –
40 | [H]/N=C(/N)N[C@H]1[C@H](O)[C@@H](O)[C@H](O[C@@H]2O[C@@H](C)[C@](O)(C=O)[C@H]2O[C@@H]2O[C@@H](CO)[C@H](O)[C@@H](O)[C@@H]2NC)[C@@H](N/C(N)=N\[H])[C@@H]1O [MMV688994, Streptomycin, reference compound] | – | – | 94 | 84.3 | –
